#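 A five-concentration, 48-hour dose response in 96-well plates underlies each endpoint, interpolated linearly between surrounding concentrations. Abbreviation: GI50, concentration required for 50% inhibition of growth. At the TGI there is no net growth.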
# Legend:
# Assay in all cases: NCI anticancer screen, dose series, 48 h
# SNB-75 CNS = test system: SNB-75 CNS
# TK-10 renal = test system: TK-10 renal
# MDA-MB-231 breast = test system: MDA-MB-231 breast
# LOX IMVI melanoma = test system: LOX IMVI melanoma
# SK-MEL-5 melanoma = test system: SK-MEL-5 melanoma
# BT-549 breast = test system: BT-549 breast
# NCI/ADR-RES ovarian = test system: NCI/ADR-RES ovarian
# SR leukemia = test system: SR leukemia
# OVCAR-8 ovarian = test system: OVCAR-8 ovarian
# CAKI-1 renal = test system: CAKI-1 renal
# MDA-MB-435 = test system: MDA-MB-435
# DU-145 prostate = test system: DU-145 prostate
# HCT-15 colon = test system: HCT-15 colon
# IGROV1 ovarian = test system: IGROV1 ovarian
# COLO 205 colon = test system: COLO 205 colon
# MALME-3M melanoma = test system: MALME-3M melanoma
# ACHN renal = test system: ACHN renal
# UACC-62 melanoma = test system: UACC-62 melanoma
# MCF7 breast = test system: MCF7 breast
# SW-620 colon = test system: SW-620 colon
# OVCAR-4 ovarian = test system: OVCAR-4 ovarian
# SK-MEL-2 melanoma = test system: SK-MEL-2 melanoma
# K-562 leukemia = test system: K-562 leukemia
# RXF 393 renal = test system: RXF 393 renal
# T-47D breast = test system: T-47D breast
# OVCAR-3 ovarian = test system: OVCAR-3 ovarian
# U251 CNS = test system: U251 CNS
# RPMI-8226 leukemia = test system: RPMI-8226 leukemia
# UACC-257 melanoma = test system: UACC-257 melanoma
# NCI-H23 lung = test system: NCI-H23 lung
# OVCAR-5 ovarian = test system: OVCAR-5 ovarian
# HOP-62 NSCLC = test system: HOP-62 NSCLC
# NCI-H522 lung = test system: NCI-H522 lung
# EKVX NSCLC = test system: EKVX NSCLC
# NCI-H460 lung = test system: NCI-H460 lung
# SF-295 CNS = test system: SF-295 CNS
# MOLT-4 leukemia = test system: MOLT-4 leukemia
# HOP-92 NSCLC = test system: HOP-92 NSCLC
# UO-31 renal = test system: UO-31 renal
# HT29 colon = test system: HT29 colon
# SN12C renal = test system: SN12C renal
# SK-OV-3 ovarian = test system: SK-OV-3 ovarian
# HCT-116 colon = test system: HCT-116 colon
# KM12 colon = test system: KM12 colon
# HCC-2998 colon = test system: HCC-2998 colon
# M14 melanoma = test system: M14 melanoma
# NCI-H226 lung = test system: NCI-H226 lung
# 786-0 renal = test system: 786-0 renal
# SF-539 CNS = test system: SF-539 CNS
# A498 renal = test system: A498 renal
# SF-268 CNS = test system: SF-268 CNS
# SNB-19 CNS = test system: SNB-19 CNS
# SK-MEL-28 melanoma = test system: SK-MEL-28 melanoma
# HS 578T breast = test system: HS 578T breast
# PC-3 prostate = test system: PC-3 prostate
# A549 NSCLC = test system: A549 NSCLC
# HL-60(TB) leukemia = test system: HL-60(TB) leukemia
# CCRF-CEM leukemia = test system: CCRF-CEM leukemia
smiles,measurement,setting,value
COc1ccccc1OCC(O)CO (stereo unspecified),GI50,SNB-75 CNS,> 100 µM
same,TGI,SNB-75 CNS,> 100 µM
same,GI50,TK-10 renal,> 100 µM
same,TGI,TK-10 renal,> 100 µM
same,GI50,MDA-MB-231 breast,> 100 µM
same,TGI,MDA-MB-231 breast,> 100 µM
same,GI50,LOX IMVI melanoma,> 100 µM
same,TGI,LOX IMVI melanoma,> 100 µM
same,GI50,SK-MEL-5 melanoma,> 100 µM
same,TGI,SK-MEL-5 melanoma,> 100 µM
same,GI50,BT-549 breast,> 100 µM
same,TGI,BT-549 breast,> 100 µM
same,GI50,NCI/ADR-RES ovarian,> 100 µM
same,TGI,NCI/ADR-RES ovarian,> 100 µM
same,GI50,SR leukemia,> 100 µM
same,TGI,SR leukemia,> 100 µM
same,GI50,OVCAR-8 ovarian,> 100 µM
same,TGI,OVCAR-8 ovarian,> 100 µM
same,GI50,CAKI-1 renal,> 100 µM
same,TGI,CAKI-1 renal,> 100 µM
same,GI50,MDA-MB-435,> 100 µM
same,TGI,MDA-MB-435,> 100 µM
same,GI50,DU-145 prostate,> 100 µM
same,TGI,DU-145 prostate,> 100 µM
same,GI50,HCT-15 colon,> 100 µM
same,TGI,HCT-15 colon,> 100 µM
same,GI50,IGROV1 ovarian,> 100 µM
same,TGI,IGROV1 ovarian,> 100 µM
same,GI50,COLO 205 colon,> 100 µM
same,TGI,COLO 205 colon,> 100 µM
same,GI50,MALME-3M melanoma,> 100 µM
same,TGI,MALME-3M melanoma,> 100 µM
same,GI50,ACHN renal,> 100 µM
same,TGI,ACHN renal,> 100 µM
same,GI50,UACC-62 melanoma,> 100 µM
same,TGI,UACC-62 melanoma,> 100 µM
same,GI50,MCF7 breast,> 100 µM
same,TGI,MCF7 breast,> 100 µM
same,GI50,SW-620 colon,> 100 µM
same,TGI,SW-620 colon,> 100 µM
same,GI50,OVCAR-4 ovarian,> 100 µM
same,TGI,OVCAR-4 ovarian,> 100 µM
same,GI50,SK-MEL-2 melanoma,> 100 µM
same,TGI,SK-MEL-2 melanoma,> 100 µM
same,GI50,K-562 leukemia,> 100 µM
same,TGI,K-562 leukemia,> 100 µM
same,GI50,RXF 393 renal,> 100 µM
same,TGI,RXF 393 renal,> 100 µM
same,GI50,T-47D breast,> 100 µM
same,TGI,T-47D breast,> 100 µM
same,GI50,OVCAR-3 ovarian,> 100 µM
same,TGI,OVCAR-3 ovarian,> 100 µM
same,GI50,U251 CNS,> 100 µM
same,TGI,U251 CNS,> 100 µM
same,GI50,RPMI-8226 leukemia,> 100 µM
same,TGI,RPMI-8226 leukemia,> 100 µM
same,GI50,UACC-257 melanoma,> 100 µM
same,TGI,UACC-257 melanoma,> 100 µM
same,GI50,NCI-H23 lung,> 100 µM
same,TGI,NCI-H23 lung,> 100 µM
same,GI50,OVCAR-5 ovarian,> 100 µM
same,TGI,OVCAR-5 ovarian,> 100 µM
same,GI50,HOP-62 NSCLC,> 100 µM
same,TGI,HOP-62 NSCLC,> 100 µM
same,GI50,NCI-H522 lung,> 100 µM
same,TGI,NCI-H522 lung,> 100 µM
same,GI50,EKVX NSCLC,> 100 µM
same,TGI,EKVX NSCLC,> 100 µM
same,GI50,NCI-H460 lung,> 100 µM
same,TGI,NCI-H460 lung,> 100 µM
same,GI50,SF-295 CNS,> 100 µM
same,TGI,SF-295 CNS,> 100 µM
same,GI50,MOLT-4 leukemia,> 100 µM
same,TGI,MOLT-4 leukemia,> 100 µM
same,GI50,HOP-92 NSCLC,> 100 µM
same,TGI,HOP-92 NSCLC,> 100 µM
same,GI50,UO-31 renal,> 100 µM
same,TGI,UO-31 renal,> 100 µM
same,GI50,HT29 colon,> 100 µM
same,TGI,HT29 colon,> 100 µM
same,GI50,SN12C renal,> 100 µM
same,TGI,SN12C renal,> 100 µM
same,GI50,SK-OV-3 ovarian,> 100 µM
same,TGI,SK-OV-3 ovarian,> 100 µM
same,GI50,HCT-116 colon,> 100 µM
same,TGI,HCT-116 colon,> 100 µM
same,GI50,KM12 colon,> 100 µM
same,TGI,KM12 colon,> 100 µM
same,GI50,HCC-2998 colon,> 100 µM
same,TGI,HCC-2998 colon,> 100 µM
same,GI50,M14 melanoma,> 100 µM
same,TGI,M14 melanoma,> 100 µM
same,GI50,NCI-H226 lung,> 100 µM
same,TGI,NCI-H226 lung,> 100 µM
same,GI50,786-0 renal,> 100 µM
same,TGI,786-0 renal,> 100 µM
same,GI50,SF-539 CNS,> 100 µM
same,TGI,SF-539 CNS,> 100 µM
same,GI50,A498 renal,> 100 µM
same,TGI,A498 renal,> 100 µM
same,GI50,SF-268 CNS,> 100 µM
same,TGI,SF-268 CNS,> 100 µM
same,GI50,SNB-19 CNS,> 100 µM
same,TGI,SNB-19 CNS,> 100 µM
same,GI50,SK-MEL-28 melanoma,> 100 µM
same,TGI,SK-MEL-28 melanoma,> 100 µM
same,GI50,HS 578T breast,> 100 µM
same,TGI,HS 578T breast,> 100 µM
same,GI50,PC-3 prostate,> 100 µM
same,TGI,PC-3 prostate,> 100 µM
same,GI50,A549 NSCLC,> 100 µM
same,TGI,A549 NSCLC,> 100 µM
same,GI50,HL-60(TB) leukemia,> 100 µM
same,TGI,HL-60(TB) leukemia,> 100 µM
CC(=O)OCCCCCn1cnc(C(N)=O)c1N,GI50,SNB-75 CNS,87.1 µM
Cc1[nH]nc(C(=O)N/N=C/c2cccs2)c1N=NN(C)C,TGI,SNB-75 CNS,8.85 µM
same,TGI,TK-10 renal,73.5 µM
same,TGI,MDA-MB-231 breast,66.6 µM
same,TGI,LOX IMVI melanoma,34.7 µM
same,TGI,SK-MEL-5 melanoma,50.2 µM
same,TGI,BT-549 breast,27.3 µM
same,TGI,NCI/ADR-RES ovarian,> 100 µM
same,TGI,OVCAR-8 ovarian,33.1 µM
same,TGI,CAKI-1 renal,25.9 µM
same,TGI,MDA-MB-435,57 µM
same,TGI,DU-145 prostate,> 100 µM
same,TGI,HCT-15 colon,38.5 µM
same,TGI,IGROV1 ovarian,31.1 µM
same,TGI,COLO 205 colon,28.2 µM
same,TGI,MALME-3M melanoma,56.7 µM
same,TGI,ACHN renal,13 µM
same,TGI,UACC-62 melanoma,51.7 µM
same,TGI,MCF7 breast,47.4 µM
same,TGI,SW-620 colon,93.5 µM
same,TGI,OVCAR-4 ovarian,31 µM
same,TGI,SK-MEL-2 melanoma,79.8 µM
same,TGI,K-562 leukemia,> 100 µM
same,TGI,RXF 393 renal,36 µM
same,TGI,T-47D breast,41.3 µM
same,TGI,OVCAR-3 ovarian,> 100 µM
same,TGI,U251 CNS,32.1 µM
same,TGI,RPMI-8226 leukemia,89.7 µM
same,TGI,UACC-257 melanoma,72.4 µM
same,TGI,NCI-H23 lung,> 100 µM
same,TGI,OVCAR-5 ovarian,> 100 µM
same,TGI,HOP-62 NSCLC,50.1 µM
same,TGI,NCI-H522 lung,29.5 µM
same,TGI,EKVX NSCLC,> 100 µM
same,TGI,NCI-H460 lung,34.7 µM
same,TGI,SF-295 CNS,45.2 µM
same,TGI,MOLT-4 leukemia,90.7 µM
same,TGI,HOP-92 NSCLC,55.1 µM
same,TGI,UO-31 renal,21.9 µM
same,TGI,HT29 colon,17.4 µM
same,TGI,SN12C renal,> 100 µM
same,TGI,SK-OV-3 ovarian,43.7 µM
same,TGI,HCT-116 colon,> 100 µM
same,TGI,KM12 colon,> 100 µM
same,TGI,HCC-2998 colon,26.6 µM
same,TGI,M14 melanoma,> 100 µM
same,TGI,CCRF-CEM leukemia,> 100 µM
same,TGI,NCI-H226 lung,70.1 µM
same,TGI,786-0 renal,69.6 µM
same,TGI,SF-539 CNS,36.5 µM
same,TGI,A498 renal,91 µM
same,TGI,SF-268 CNS,37.1 µM
same,TGI,SNB-19 CNS,27.6 µM
same,TGI,HS 578T breast,> 100 µM
same,TGI,PC-3 prostate,> 100 µM
same,TGI,A549 NSCLC,52.7 µM
same,TGI,HL-60(TB) leukemia,89.4 µM

# — PubChem BioAssay (NCI)
